Data as given in ChEMBL document CHEMBL1142930, “Cyathane diterpenes from Sarcodon cyrneus and evaluation of their activities of neuritegenesis and nerve growth factor production” (2007).
Active and inactive are the calls of the source. No cut-off for these calls is given here.

Experiments:
[1] = Induction of NGF gene expression in human 1321N1 cells at 200 uM relative to control; type: functional
PC-12 = test: Stimulation of neurite outgrowth in rat PC12 cells assessed as morphological change at 200 uM after 24 hrs; type: functional, cell-based

Compound | Fold change [1] | Activity (PC-12)
CC(C)C1=C2C3=CC=C(C=O)C[C@H](O)[C@]3(C)CC[C@@]2(C)[C@H](O)C1 [CYRNEINE A] | 3.8 | –
CC(C)C1=CC(=O)[C@]2(C)CC[C@]3(C)C(=CC=C(C=O)C[C@@H]3O)[C@]12O [CYRNEINE B] | 7.3 | –
CC(C)C1=CC(=O)[C@]2(C)CC[C@@]3(C)C(=O)CC(C=O)=CC[C@@H]3[C@H]12 [CYRNEINE C] | 2.7 | inactive
CC(C)C1=CC(=O)[C@]2(C)CC[C@@]3(C)C(=O)CC(C=O)=CC[C@@H]3[C@]12O [CYRNEINE D] | 1.3 | inactive
CC(C)C1=CC(=O)[C@]2(C)CC[C@]3(C)C(=CC=C(C=O)C[C@@H]3O)[C@H]12 [GLAUCOPINE C] | 3.5 | inactive
